From patent US12427114B2, “Orodispersible dosage unit containing an estetrol component” (ESTETRA SRL, priority 2015, dated 2025)

Columns and labels:
estrogen receptors = conditions: in vitro; cited from earlier work
[1] = Randomized, open-label, two-period, cross-over pharmacokinetic study, sublingual versus oral 10 mg estetrol tablet; assay type: in vivo, human; conditions: 10 mg estetrol sublingual vs oral; healthy female volunteers
Experimental: A randomized, open-label, two-period, cross-over, pharmacokinetic study is conducted to compare sublingual bioavailability of 10 mg estetrol administered in one 80 mg tablet (having the same composition as the tablets described in Example 4, Formulation E) with oral availability of estetrol contained in a 83 mg tablet containing 10 mg estetrol. These tablets are administered sublingually and orally to healthy female volunteers under fasting conditions.
Ten healthy female subjects are selected on the basis of the following criteria: age of 45-65 years (inclusive), nonsmokers or past smokers (at least 6 months before dosing), body-mass index (BMI)=18.5 to 30 kg/m^2 (inclusive at the time of the screening).
At the start of the first and the second period of the study, between 07:00 am and 07:28 am, 5 subjects receive a single dose of the sublingual formulation of estetrol by administering one estetrol tablet (tablet weight 80 mg; 10 mg estetrol) and 5 subjects receive a single oral dose of the oral estetrol formulation by administering one estetrol tablet (tablet weight 83 mg; 10 mg estetrol), ingested together with 200 ml water. […]
The estetrol concentration in the collected blood samples is determined by means of HPLC/MS/MS. The concentrations of glucuronided estetrol (D-ring) in the urine samples is also determined with the help of HPLC/MS/MS.

[2] = humans; cited from earlier work
[3] = test system: vagina, uterus, body weight, bone mass, bone strength, hot flushes, ovulation; conditions: ovulation (inhibition), dose-dependent; cited from earlier work
production of SHBG = conditions: in vitro; cited from earlier work
DMBA mammary tumour = conditions: extent and dose level similar to tamoxifen and to ovariectomy; cited from earlier work
[4] = test system: human breast cancer cells; conditions: in vitro; cited from earlier work
[5] = molecular target: T1, sex hormone binding globulin (SHBG) (Homo sapiens, UniProt P04278); conditions: cited from earlier work
T1 sequence (P04278 30-402): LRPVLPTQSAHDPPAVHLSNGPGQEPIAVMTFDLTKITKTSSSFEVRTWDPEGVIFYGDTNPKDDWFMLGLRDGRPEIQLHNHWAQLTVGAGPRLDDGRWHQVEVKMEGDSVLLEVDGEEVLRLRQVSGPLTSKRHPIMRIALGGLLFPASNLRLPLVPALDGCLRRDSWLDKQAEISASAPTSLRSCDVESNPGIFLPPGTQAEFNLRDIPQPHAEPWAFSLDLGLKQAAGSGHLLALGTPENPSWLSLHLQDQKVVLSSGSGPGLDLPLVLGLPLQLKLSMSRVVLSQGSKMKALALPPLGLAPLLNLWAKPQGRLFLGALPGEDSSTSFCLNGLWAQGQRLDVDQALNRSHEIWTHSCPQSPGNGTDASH

C[C@]12CC[C@@H]3c4ccc(O)cc4CC[C@H]3[C@@H]1[C@@H](O)[C@@H](O)[C@@H]2O [estetrol, 1,3,5 (10)-estratrien-3,15α,16α, 17β-tetrol]
Estrogen receptor binding selectivity (estrogen receptors): binds highly selective to the estrogen receptors with preference for the ERα form
Impact on a liver function parameter, sublingual compared with oral [1]: less impact on a liver function parameter
Oral bioavailability [2]: high and dose-proportional
Terminal elimination half-life [2]: about 28 hours
Estrogenic effects in rat models [3]: exhibited estrogenic effects
Stimulation of the production of SHBG (production of SHBG): does not stimulate
Tumour development (DMBA mammary tumour): prevented tumour development
Effect in the presence of 17β-estradiol [4]: anti-estrogenic effect
Binding to SHBG [5]: does not bind
